From article PMC12373846, “Hemoglobin as a pseudoperoxidase and drug target for oxidative stress-related diseases” (Signal Transduction and Targeted Therapy, 2025)
Read-outs that look alike come from different tables or passages of the source.

Tests used:
APP/PS1 mice = assay: Passive avoidance test, APP/PS1 mice; assay type: in vivo, mouse
Description: For an animal model of AD, both sexes of 10- to 18-month-old APP/PS1 mice were maintained and used as previously described.[76],[77] To test the effects of novel H2O2-decomposing enhancers in the AD model, the mice were treated by i.p. injection with KDS12008 (3 mg/kg/day), KDS12017 (3 mg/kg/day), or KDS12025 (3 or 10 mg/kg/day) once per day for 1 or 2 weeks, depending on the experimental protocol. All drugs were dissolved in 200 μl of saline, and the amount of each drug was calculated on the basis of the weight (kg) of the mouse. Moreover, KDS12025 (3 mg/kg/day) was orally administered to the AD model for 2 weeks ad libitum.
Sufficiently handled mice were ready before the PAT. The mice were placed in a two-compartment (light and dark) shuttle chamber with a shock generator (Ugo Basile, Italy). On the first day, the mice were placed in the light compartment for acquisition. The mice were allowed to explore the light compartment for 60 s, after which the door separating the light and dark compartments was raised to allow the mice to enter the dark compartment. When the mice entered the dark compartment, the separating door was closed immediately, and an electrical foot shock (0.5 mA, 2 s duration) was delivered through the floor grid. The mice were then moved back to the home cage, and the retention trial was conducted 24 h after the acquisition. On the second day, the mice were again placed in the light compartment for the retention trial. After 60 s, the door was raised to allow the mice to enter the dark compartment. The latency to step through the dark compartment before and after the electric shock was recorded for up to 540 s.

[1] = test system: primary cultured hippocampal astrocytes; assay: DCFDA intracellular ROS assay; assay type: cell-based, mouse; conditions: for Aβ-induced ROS level (DCFDA), normalized to control: Aβ 5μM + compound 10μM, Fig. 3e; for relative ROS level (DCFDA): Aβ42+KDS12025 10 μM, Fig. 6c
Description: Primary hippocampal astrocytes were obtained from postnatal day 0‒2 (P0‒2) C57BL/6 mice as previously described.[73] The hippocampal tissue was dissected free of meninges, minced, and dissociated into a single-cell suspension by trituration. The cells were grown in Dulbecco’s modified Eagle’s medium supplemented with D-glucose (4500 mg/L), L-glutamine, sodium pyruvate (110 mg/L), 10% heat-inactivated horse serum, 10% heat-inactivated fetal bovine serum, and 1000 U/ml penicillin‒streptomycin. The cells were maintained at 37 °C in a humidified atmosphere containing 5% CO2.
The intracellular ROS levels of astrocytes were determined via 2′,7′- dichlorodihydrofluorescein diacetate (DCFDA; Thermo Fisher). Primary cultured hippocampal astrocytes were seeded into black 96-well plates (Ibidi) at a density of 5 × 10⁴ cells per well. The plates were incubated with oligomerized Aβ42 in the presence of KDS12008, KDS12017, KDS12025, HTPEB (10 µM each), and sodium pyruvate (1 mM). These cells were subsequently washed with Ca^2+ and Mg^2+-containing PBS, followed by the application of 30 µM DCFDA and incubation at 37 °C for 30 min in a dark incubator. The mean fluorescence intensity of each well was measured via iD5 microplate readers at 485 nm and 530 nm. The fluorescence values were calculated by subtracting the blank readings and normalizing them to those of the control group.

Hb = biological target: T1, Hb (Homo sapiens, UniProt P68871); assay: ROS-Glo H2O2 assay with Hb; assay type: biochemical; conditions: for remaining H2O2 normalized to no Hb: Fig. 2d; for fold change in H2O2 decomposition (Hb pseudoperoxidase activity per 0.5 h): 30-min window, Fig. 2b
T1 construct: purchased Sigma-Aldrich H7379
Description: Hb (Sigma‒Aldrich, H7379), H2O2 (Sigma‒Aldrich, H1009), and Amplex Red reagents (Invitrogen, A12222) were obtained for the study. A 4 μM H2O2 solution was prepared in 50 mM sodium phosphate buffer (pH 7.2). Then, 49 μl of this mixture was mixed with 1 μl of the test compound in DMSO or distilled water. The mixture was combined with an assay mixture of Amplex Red reagent (20 mM stock to 0.1 mM) and HRP (200 U/ml stock to 0.2 U/ml) and added to the wells at 50 μl/well. After a 60-min incubation at 37 °C, resorufin production was quantified via a microplate fluorescence reader (SpectraMax iD5, Molecular Devices) at ex/em = 535/580 nm. […] For the ROS-Glo assay, the H2O2 substrate solution and ROS-Glo detection solution were prepared according to the manufacturer’s instructions. 10 μM H2O2 and drugs were prepared as in the Amplex Red assay, with HRP, Hb, CAT, or GPx added as needed. The mixture was added to the wells at 100 μl/well and incubated for 60 min at 37 °C. H2O2 substrate solution was added, and the mixture was incubated at room temperature for 30 min. After the H2O2 substrate solution was added and incubated at room temperature for 30 min, the ROS-Glo detection solution was added, and the mixture was incubated for 15 min. Luminescence was measured via iD5 microplate readers. […] The U/ml was calculated on the basis of the amount of H2O2 reduced by Hb during the reaction, using μg/ml and U/mg.
To evaluate the extent of peroxidase function facilitation by HTPEB (1 μM) and KDS12025 (1 μM) in HRP (0.2 U/ml) and Hb (10 μg/ml), we used the ROS-Glo assay over 30 and 60 min. The fold change was calculated by dividing the delta values during the 30-min reaction for the vehicle over drug conditions.
To assess enzyme activity, the amount of H2O2 consumed over a specific time was quantified alongside a standard curve. For the peroxidase function of Hb, Hb was administered at doses ranging from 0.01 to 112 U/ml and preincubated with H2O2 and either DMSO, HTPEB (1 μM), or KDS12025 (1 μM) at 37 °C for 30 min. The remaining H2O2 was measured via the ROS-Glo assay and normalized against conditions without Hb. The dose‒response curve, EC50, and EC20 for H2O2 decomposition were calculated and determined by fitting the data with GraphPad Prism software. The fitting method had no special handling of outliers, and least squares regression with confidence intervals of the parameters was 95%.

[2] = 3 mg/kg/day i.p., 16 times, Fig. S10b
[3] = APP+KDS12025 3 mg/kg/day ad libitum, Fig. 5m
[4] = Tables S2, S3, read-out: HB-EC50
[5] = in the presence of Hb, Fig. 1h, read-out: EC50 with Hb (H2O2 decomposition)

T1 sequence (P68871 2-147 limits assumed): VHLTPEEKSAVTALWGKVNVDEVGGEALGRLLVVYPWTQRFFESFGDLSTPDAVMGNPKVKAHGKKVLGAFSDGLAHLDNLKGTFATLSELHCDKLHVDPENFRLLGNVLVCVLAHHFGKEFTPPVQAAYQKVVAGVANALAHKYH
T1 sequence (P69905 2-142 partner limits assumed): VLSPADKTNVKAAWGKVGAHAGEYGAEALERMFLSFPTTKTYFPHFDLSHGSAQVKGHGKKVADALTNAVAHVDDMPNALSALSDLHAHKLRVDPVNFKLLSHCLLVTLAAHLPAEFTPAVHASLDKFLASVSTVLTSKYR

| SMILES | PAT transfer latency, acquisition (APP/PS1 mice; [2]) | PAT transfer latency, retrieval (APP/PS1 mice; [2]) | Aβ-induced ROS level (DCFDA), normalized to control [1] | remaining H2O2 normalized to no Hb (Hb; Hb 0.01 U/ml) | remaining H2O2 normalized to no Hb (Hb; Hb 0.1 U/ml) | remaining H2O2 normalized to no Hb (Hb; Hb 1 U/ml) | fold change in H2O2 decomposition (Hb pseudoperoxidase activity per 0.5 h) (Hb) [fold] | EC50 (Hb; [4]) [nM] | EC50 (Hb; [5]) [nM] | other results |
| --- | --- | --- | --- | --- | --- | --- | --- | --- | --- | --- |
| CNc1ccc(NCCc2ccccc2OC)cc1.Cl [KDS12025, N^1-(2-methoxyphenethyl)-N^4-methylbenzene-1,4-diamine hydrochloride salt] | 29.03±6.431 | 291.0±68.80 | 110.3±5.804 | 82.57±2.025 | 75.36±1.113 | 62.38±2.923 | 5.676±0.6374 | 44.9 | 40 | PAT transfer latency, acquisition (APP/PS1 mice; 3mpk i.p., 7 times, Fig. S10g): 36.47±13.39; PAT transfer latency, retrieval (APP/PS1 mice; 3mpk i.p., 7 times, Fig. S10g): 341.7±71.16; PAT transfer latency, acquisition (APP/PS1 mice; 10mpk i.p., 7 times, Fig. S10g): 66.00±15.30; PAT transfer latency, retrieval (APP/PS1 mice; 10mpk i.p., 7 times, Fig. S10g): 508.8±49.93; PAT transfer latency, acquisition (APP/PS1 mice; [3]): 21.17±3.843; PAT transfer latency, retrieval (APP/PS1 mice; [3]): 254.3±56.96; relative ROS level (DCFDA) ([1]; Hbβ-shRNA astrocytes): 134.1±5.185; relative ROS level (DCFDA) ([1]; Sc-shRNA astrocytes): 105.8±2.173; enhancement of Hb pseudoperoxidase activity (Hb): 100 fold; EC50 (Hb; Fig. S1f, read-out: EC50, H2O2 decomposition with human hemoglobin (hHb)): 33 nM; H2O2 decomposition at extremely low Hb (Hb; Hb 0.04 U/ml, 0.03 μg/ml): up to 20%; potency relative to HTPEB (Hb; ratio of EC50 with Hb): ~ 4 fold; fold decrease of Hb EC20 for H2O2 decomposition (Hb; vs Hb alone, Fig. 2e): 98 fold; fold decrease of Hb EC50 for H2O2 decomposition (Hb; vs Hb alone, Fig. 2e): 4.7 fold |
| O=C(O)c1cc(NCCc2ccc(C(F)(F)F)cc2)ccc1O [HTPEB, 2-hydroxy-5-[2-(4-trifluoromethyl-phenyl)-ethylamino]-benzoic acid, reference compound] |  |  | 112.0±8.321 | 84.92±3.034 | 81.24±5.607 | 70.82±3.83 | 2.529±0.6645 | 155 | 150 | facilitation of H2O2 decomposition by Hb (Hb; with HTPEB, Fig. 1f): 2 fold |
| CN(C)c1ccc(NCCc2ccc(C(F)(F)F)cc2)cc1.Cl [KDS12008, N^1,N^1-dimethyl-N^4-(4-(trifluoromethyl)phenethyl)benzene-1,4-diamine hydrochloride salt] | 44.42±13.85 | 233.6±102.3 | 96.78±7.989 |  |  |  |  | 67 |  |  |
| CNc1ccc(NCCc2ccc(C(F)(F)F)cc2)cc1.Cl [KDS12017, N^1-methyl-N^4-(4-(trifluoromethyl)phenethyl)benzene-1,4-diamine hydrochloride salt] | 71.53±23.24 | 305.6±137.5 | 109.6±6.466 |  |  |  |  | 86.2 | 90 |  |
